Experimental findings from patent publication US20170105407A1, “COMPOSITIONS AND METHODS FOR ENHANCING RED BLOOD CELL STORAGE TIME AND SURVIVABILITY USING NITRIC OXIDE RELEASING HYBRID HYDROGEL NANOPARTICLES” (ALBERT EINSTEIN COLLEGE OF MEDICINE, INC., priority 2014, published 2017) are described below.

The subject of data set [1] is stored RBCs. Briefly: Storage lesion parameters of stored RBCs over 42 days (2,3-DPG, potassium, pH, free hemoglobin, microparticles). As to conditions: for 2,3 DPG level during storage / Levels of free hemoglobin (hemolysis) during storage / Potassium levels during storage / pH (acidification) during storage: all species (human, hamster, rat), 42 days storage; for Microparticle formation in stored blood: human, hamster, rat blood. In kind it is cell-based, human, hamster, rat. The procedure: NO releasing nanoparticles were added to the blood at 10 mg per 125 mL of whole blood. Stored blood was treated with the nanoparticles once every 48 hours at the above described dosing over a period of 21 days for the in vivo transfusion studies. The storage lesion studies were extended to a period of 6 weeks.
In this example, the procedure was substantially the same as Example 6.1, except that transfused blood was stored for 42 days, and included human, hamster, and rat blood. FIGS. 5(D)-(F) show potassium levels and hemolysis over a six week period.
Human RBC units were purchased from the San Diego Blood bank. Blood were preserved in blood collection bags and kept at 4° C.
Blood was obtained from donor rats (˜300 g) Animals were anaesthetized (pentobarbital 60 mg/kg ip) and a femoral catheter (PE-50) was implanted and blood was drawn into 10 mL syringes containing 1.5 mL of citrate, phosphate, dextrose adenine solution (CPDA-1). Blood was leukoreduced, by passing through a neonatal high efficiency leukocyte reduction filter Purecell NEO (Pall Company, East Hills, N.Y.). The leukoreduced blood was centrifuged for 10 minutes at 1350 rpm and supernatant was partially removed to achieve approximately 75% Hct. Packed cell were transferred under sterile conditions to a preservative free blood collection tube and kept at 4° C.
Blood was obtained from donor hamsters (˜80 g). Hamsters were anaesthetized (pentobarbital 60 mg/kg ip) and femoral catheter implanted. The blood from three hamsters was drawn into 10 mL syringes containing 1.5 mL CPDA-1, then leukoreduced as described before and centrifuged. Hamster packed cells were preserved in blood collection tube and kept at 4° C.

Data set [2] concerns stored RBCs. In words: RBC glycolytic metabolism during storage over 42 days. In kind it is cell-based. As to conditions: for ATP produced vs control / Adenine in stored blood vs control / Citrate in stored blood vs control / Glucose in stored blood vs control / Lactate produced vs control / Mannitol in stored blood vs control / Pyruvate produced vs control: over 42 days. The method, then: In this example, the glyocotic metabolic mechanism was tested in stored blood. […] The main metabolic pathway of RBC is glycolysis and is primarily fueled by glucose. Glucose enters a RBC and is metabolized to produce ATP, and also pyruvate which in turn is converted to lactate. […] This pathway serves primarily to reduce nicotinamide adenine dinucleotide phosphate (NADPH). In conjunction with the glutathione reductase/peroxidase system, NADPH maintains the sulfhydryl groups of globin in their reduced state.
In order to test RBC metabolism, four sets of stored RBCs were tested: RBCs treated with NO releasing nanoparticles (NOnp), RBCs treated with the S-nitrosothiol derivative of glutathione (GSNO), RBCs treated with NONOates (DTPANO), and a control group of RBCs that were not supplemented. GSNO, which due to its long half-life and ability to transnitrosate, has greater antimicrobial activity then NOnp alone against clinical isolates of gram positive and negative multi drug resistant pathogens. Given both the extended bioactive lifetime of GSNO compared to free NO and the potential differences in target tissues/cells and the success achieved with the NO releasing nanoparticle platform, it was undertaken to produce nanoparticles that were similar in character and structure, but with the capability of either releasing GSNO species or transferring NO via S-transnitrosation. FIGS. 8(A)-(D) show the behavior of various elements of the first step of the glycotic pathway over a period of 42 days. […] FIGS. 8(B)-(D) show the amount of adenine, mannitol, and citrate respectively. […] This is important because these components help RBCs resynthesize the energy carrier adenosine triphosphate (ATP). ATP is a key component in extending the shelf life of stored blood. FIGS. 9(A)-(D) depict the key components in the next step of the glycotic pathway, wherein ATP is created and pyruvate is produced and then converted to lactate. The longevity of stored blood increases as more ATP is produced and less pyruvate and lactate is produced. […] Overall, NOnp and GSNO treated RBC are much slower to lose initial metabolic markers of RBC health than both untreated RBCs and those treated with NONOates.

Another data set concerns stored blood. In words: Buildup of methemoglobin, plasma nitrite and plasma nitrate in stored blood over six weeks. In kind it is cell-based. As to conditions: over a period of six weeks. The method, then: In this example, the buildup of methemoglobin (MetHb), plasma nitrite and plasma nitrate was also measured over a period of six weeks. […] Nitrite levels were measured because higher nitrate levels are associated with positive RBC health and functionality. […] NO supplementation limits the progressive loss of nitrite and nitrate in RBCs, and such loss of nitrite and nitrate has been correlated with an increase in oxidative damage.

The next data set has as its system RBC. Briefly: Mechanical properties (flexibility) of RBCs during storage. In kind it is cell-based. As to conditions: at 1 week, 3 weeks, 5 weeks and 6 weeks of storage. The text has this: In this example, as shown in FIGS. 16(A)-(D), RBC flexibility is slowed for RBCs treated with NOnps and GSNO.

“Also recorded” adds a separate entry of the source.

Take `N[C@@H](CCC(=O)N[C@@H](CSN=O)C(=O)NCC(=O)O)C(=O)O` [GSNO, S-nitrosothiol derivative of glutathione]: in the data set with stored RBCs [1], the “2,3 DPG level during storage” value is listed as “prevented 2,3 DPG rapid decrease”, the “Levels of free hemoglobin (hemolysis) during storage” value was “did not increase the levels of free hemoglobin”, the “Potassium levels during storage” value is on record as “slowed down potassium levels” and the “pH (acidification) during storage” value was “prevented rapid acidification”. In the data set with stored RBCs [1], the “Microparticle formation in stored blood” value was “reduced microparticle formation”. Moreover, in the data set on stored RBCs [2] (during storage), the “Glucose-6-phosphate dehydrogenase (G6PD) vs control” value is reported as “maintained or even enhanced”, the “Glyceraldehyde 3-phosphate dehydrogenase (GAPDH) vs control” value is “maintained or even enhanced”, the “Hexokinase (HK) vs control” value is recorded as “maintained or even enhanced” and the “Phosphofructokinase (PFK) vs control” value is “maintained or even enhanced”. Moreover, the “Pyruvate kinase (PK) vs control” value with stored RBCs [2] (during storage) was “maintained or even enhanced”. Also, in the data set with stored RBCs [2], the “ATP produced vs control” value was “produce more ATP than the control”, the “Adenine in stored blood vs control” value was “retained higher amounts of each component than the control”, the “Citrate in stored blood vs control” value is “retained higher amounts of each component than the control” and the “Glucose in stored blood vs control” value is “maintaining slightly higher amounts of glucose”. In the data set on stored RBCs [2], the “Lactate produced vs control” value is “the control produces much more pyruvate and lactate”; the “Mannitol in stored blood vs control” value was “retained higher amounts of each component than the control”; the “Pyruvate produced vs control” value was “the control produces much more pyruvate and lactate”. In the data set with stored blood, the “Methemoglobin (MetHb) formation” value was “did not generate significantly more MetHb than the control”. The RBC flexibility result with RBC is “remained more flexible than untreated and DPTANO treated blood”.

Turning to `NCCCN(CCCN)/[N+]([O-])=N/O` [DPTANO], in the data set on stored RBCs [1], the “2,3 DPG level during storage” value is listed as “prevented 2,3 DPG rapid decrease”; the “Levels of free hemoglobin (hemolysis) during storage” value is on record as “either did not significantly differentiate from the control, or performed worse”; the “Potassium levels during storage” value was “either did not significantly differentiate from the control, or performed worse”; the “pH (acidification) during storage” value is “either did not significantly differentiate from the control, or performed worse”. Also, in the data set with stored RBCs [1], the “Microparticle formation in stored blood” value was “faired similarly or worse than the control”. In the data set with stored RBCs [2], the “ATP produced vs control” value is “only produces slightly less than the control”, the “Adenine in stored blood vs control” value is listed as “retained higher amounts of each component than the control”, the “Citrate in stored blood vs control” value is on record as “retained higher amounts of each component than the control” and the “Glucose in stored blood vs control” value is “maintaining slightly higher amounts of glucose”. For the same compound, in the data set on stored RBCs [2], the “Lactate produced vs control” value was “the control produces much more pyruvate and lactate”; the “Mannitol in stored blood vs control” value is reported as “retained higher amounts of each component than the control”; the “Pyruvate produced vs control” value was “the control produces much more pyruvate and lactate”. Moreover, the “Methemoglobin (MetHb) formation” value in the data set with stored blood was “more met Hb formation; also recorded: increased the formation of met-hemoglobin”. Further, in the data set with RBC, the RBC flexibility result is “did not vary substantially from that of untreated blood”.
